This data set deals with CCRIS mutagenicity, Ames/micronucleus/aberration tests. Kind of data set: CCRIS mutagenicity studies.
Setting [1] is: Test System: AMES SALMONELLA TYPHIMURIUM, Strain/Indicator: TA100, Metabolic Activation: NONE, Method: PREINCUBATION

Structures are written as SMILES. Activity calls are given as the source filed them. How the calls were made is not given here.

As to `COC1=C[C@@H]2[C@@H]3Cc4ccc(OC)c(O)c4[C@]2(CCN3C)CC1=O`, the mutagenic call by setting is: (Test System: AMES SALMONELLA TYPHIMURIUM, Strain/Indicator: TA98, Metabolic Activation: RAT, LIVER, S-9, PHENOBARBITAL AND BETA-NAPHTHOFLAVONE, Method: PREINCUBATION) “inactive; negative”; (Test System: AMES SALMONELLA TYPHIMURIUM, Strain/Indicator: TA100, Metabolic Activation: RAT, LIVER, S-9, PHENOBARBITAL AND BETA-NAPHTHOFLAVONE, Method: PREINCUBATION) “inactive; negative”.

In the case of `Oc1cc2cc3c(ccc4ccccc43)cc2c2ccccc12`, the mutagenic call (Test System: CHINESE HAMSTER V-79, Strain/Indicator: V-79/8-AZAGUANINE, Metabolic Activation: NONE, Method: STANDARD PLATE) was “active; positive”.

In the case of `C[N+]1=CC=C(c2ccccc2)CC1`, the mutagenic call reads like this: under setting [1], “active; positive”; (Test System: AMES SALMONELLA TYPHIMURIUM, Strain/Indicator: TA102, Metabolic Activation: NONE, Method: PREINCUBATION) “inactive; negative”.

On to `CC(C)(COCC1CO1)COCC1CO1` (stereo unspecified), for which the mutagenic call is, setting by setting: (Test System: AMES SALMONELLA TYPHIMURIUM, Strain/Indicator: TA100, Metabolic Activation: HAMSTER, LIVER, S-9, AROCLOR 1254 (10%), Method: PREINCUBATION) “active; positive”; under setting [1], “active; positive”; (Test System: AMES SALMONELLA TYPHIMURIUM, Strain/Indicator: TA100, Metabolic Activation: RAT, LIVER, S-9, AROCLOR 1254 (10%), Method: PREINCUBATION) “active; positive”; (Test System: AMES SALMONELLA TYPHIMURIUM, Strain/Indicator: TA1535, Metabolic Activation: HAMSTER, LIVER, S-9, AROCLOR 1254 (10%), Method: PREINCUBATION) “active; positive”; (Test System: AMES SALMONELLA TYPHIMURIUM, Strain/Indicator: TA1535, Metabolic Activation: NONE, Method: PREINCUBATION) “active; positive”; (Test System: AMES SALMONELLA TYPHIMURIUM, Strain/Indicator: TA1535, Metabolic Activation: RAT, LIVER, S-9, AROCLOR 1254 (10%), Method: PREINCUBATION) “active; positive”.

(Values after PubChem BioAssay AID1259407 (Chemical Carcinogenesis Research Information System (CCRIS), 2018).)
